Data from patent US6635629B2, “3-nitrogen-6,7-dioxygen steroids and uses related thereto” (Inflazyme Pharmaceuticals Ltd., priority 2000, dated 2003).
Like-named read-outs stand apart in the source and are kept apart here.

Legend:
Jurkat clone E6.1 cells = assay: Antigen-induced (anti-CD3 mAb) calcium flux in Jurkat clone E6.1 cells; format: cell-based; conditions: for Calcium (% inhibition at 20 μM): anti-CD3 mAb 4 μg/mL, Fura 2AM
Description: Elevation of cytoplasmic calcium concentration is a common and crucial event which follows the activation of many types of cell surface receptors. Increases in intracellular calcium that occur following agonist activation of inositol lipid hydrolysis are the results of calcium release from the endoplasmic reticulum and the influx of calcium through the plasma membrane. Increases in cytosolic calcium concentration are involved in many important cellular responses in the inflammatory process including adhesion, motility, gene expression, proliferation, and degranulation. Changes in intracellular calcium centrations can affect both short and long term cellular responses. An assay method to evaluate a test compound's impact on calcium flux is provided as follows.
The resulting supernatants are discarded and each pellet is washed in 10 mL HBSS. Cell suspensions are accumulated and centrifuged for 5 minutes at 900 RPM to form a cell pellet. The resulting supernatant is discarded and the pellet is resuspended in HBSS at 1×10^7 cells/mL. The cell suspension is transferred to a 20 mm petri dish and incubated at 37° C., 5% CO2 for 20 minutes.
One volume of Fura 2AM is mixed to one volume of detergent Pluronic F127. Cells are labeled with 4 μL of probe solution to each mL of cell suspension. The petri dish is wrapped in aluminum foil to protect from light and placed on a plate shaker for 30 minutes at room temperature.
The following steps are done in the laminar flow hood with the fluorescent lights turned off. The petri dish is removed from the shaker and the labeled cell suspension is transferred to a 15 mL conical tube and washed twice with HBSS as above. The cell pellet is resuspended in 12 mL HBSS and left wrapped in foil for 30 minutes at room temperature. The labeled cell suspension is aliquoted (100 μL/well) into a Dynex 96 well white opaque tissue culture plate. […] Selected compounds were tested for dose related activity. Test samples and activator (anti—CD3 mAb at final concentration of 4 μg/mL, PharMingen) are added manually (50 μL), such that the minimum time to acquire the first data point after stimulation is approximately 30 seconds. The calcium influx response to anti-CD3 mAb is measured as an “end point” assay. The entire plate is read in 100 seconds using a kinetic of 1 second per well.
The plate is read before the addition of anti-CD3 to monitor non-specific effect of samples/drugs. Fluorescence emission is measured at 510 nm with excitation alternating between 340 and 380 every second using an excitation/emission filter pair. Data from these dual wavelengths are represented as a ratio of 2 excitations wavelengths. This ratio is independent of intracellular dye and cell concentrations, enabling real comparison between experiments.

[1] = system: rat mast cell line (RBL-2H3); assay: Antigen-induced release of hexosaminidase from a rat mast cell line (RBL-2H3); format: cell-based; conditions: tested at 0.3, 3, 10 and 30 μM, read-out: Hex IC50
Description: The anti-allergic effects of a compound of the present invention was evaluated by measuring its effect on antigen-induced secretion of hexosaminidase from a passively sensitized rat mast cell line. The ability of a test compound to inhibit the release of mast cell granule contents, e.g., histamine and hexosaminidase, is indicative of the anti-allergy and/or anti-asthma activity of the compound. Hexosaminidase is released from the mast cell granule along with histamine and other mediators during antigen challenge. The test is performed as follows.
RBL-2H3 cells are grown in culture and passively sensitized for 1 hour at 37° C. to dinitrophenol (DNP) using anti-human-DNP (IgE). Cells are incubated with test compound for 30 minutes at 37° C. and stimulated with 0.5 μg/ml DNP-HSA (antigen) for 30 minutes. Aliquots of the supernatant are removed and used to measure the amount of hexosaminidase released during challenge with the antigen. […] The effect of each test compound is determined as a percentage of the antigen-induced response (minus background release) obtained in the presence of DMSO alone. These values are used to determine the degrees of inhibition of antigen-induced hexosaminidase release from the cells.

[2] = system: sensitized Brown Norway rats; assay: Ovalbumin-induced accumulation of inflammatory cells in lung lavage fluid of sensitized Brown Norway rats; format: in vivo, rat; conditions: p.o., corn oil vehicle, relative to control animals
Description: The ability of a compound to inhibit the allergen-induced accumulation of inflammatory cells such as eosinophils and neutrophils in the lavage fluid obtained from sensitized animals is indicative of that compound's anti-asthma activity. […] The test is conducted as follows.
Male Brown Norway rats are sensitized to ovalbumin by single intraperitoneal injection of 1 mg ovalbumin adsorbed to 100 mg A(OH)3 (alum) in 1 ml sterile saline (saline control rats receive only sterile saline) on day 1, and allowed to sensitize until day 21. […] Rats are challenged with 0.5% ovalbumin in saline generated using a Devillbis nebulizer for 60 min on day 21.
Forty-eight hrs after challenge, animals are sacrificed with an overdose of intraperitoneally-delivered sodium pentobarbitol and the lungs are lavaged with cold 2×7 ml phosphate buffered saline. The recovered lavage fluid is placed on ice. The bronchoalveolar lavage fluid is centrifuged and the supernatant removed. The pellet is resuspended in phosphate buffered saline at 4° C. Cytospins are prepared and stained for differentiation and enumeration of cell types.
Test compound was administered in 300 μl corn oil (Tables 7 and 8) or water (Table 9), which were used as vehicles. Control animals received 300 μl corn oil or water alone, i.e., no drug. […] A negative value in Table 7, 8, or 9 indicates an exacerbation of the effect over the control animal.

[3] = inhibition of DNP-HSA antigen-induced hexosaminidase release

Row | SMILES | Calcium (% inhibition at 20 μM) (Jurkat clone E6.1 cells) [%] | IC50 [1, 3] [µM] | further results
1 | CCC1(C)CCC2=C1CCC1C2C(O)C(O)C2CC(Nc3ccccc3)CCC21C.Cl (mixture of isomers) [Compound 144] | 13.0 | 6.9 | –
2 | CCC1(C)CCC2=C1CCC1C2C(O)C(O)C2CC(Nc3cccc(C(F)(F)F)c3)CCC21C.Cl (mixture of isomers) [Compound 145] | −0.2 | 22 | –
3 | C=C1CCC2C3C(CC[C@]12C)[C@@]1(C)CCC(N)CC1[C@@H](O)[C@@H]3O (some centres unmarked) [Compound 53] | −0.8 | – | % inhibition of eosinophils ([2]; 5 mg/kg/day for 4 days): 24%; % inhibition of lymphocytes ([2]; 5 mg/kg/day for 4 days): 13%; % inhibition of neutrophils ([2]; 5 mg/kg/day for 4 days): 57%; IC50 ([1]; Rattus norvegicus, RBL-2H3, inhibition of DNP-HSA antigen-induced hexosaminidase release): 17.6 µM
4 | C=C1CCC2C3C(CC[C@]12C)[C@@]1(C)CCC(N)CC1[C@@H](O)[C@@H]3O (some centres unmarked) [Compound 54] | 19.8 | – | % inhibition of eosinophils ([2]; 1 mg/kg/day for 4 days): −82%; % inhibition of lymphocytes ([2]; 1 mg/kg/day for 4 days): −7%; % inhibition of neutrophils ([2]; 1 mg/kg/day for 4 days): −19%
5 | C=C1CCC2C3C(CC[C@]12C)[C@@]1(C)CCC(N)CC1[C@@H](OC)[C@@H]3OC (some centres unmarked) [Compound 80] | 7.4 | 10.7 | –
6 | CC(F)=C1CCC2C3C(CC[C@]12C)[C@@]1(C)CCC(N)CC1[C@@H](O)[C@@H]3O (some centres unmarked) [Compound 95] | 11.2 | 13.5 | % inhibition of eosinophils ([2]; 5 mg/kg/day for 4 days): 14%; % inhibition of lymphocytes ([2]; 5 mg/kg/day for 4 days): 30%; % inhibition of neutrophils ([2]; 5 mg/kg/day for 4 days): 45%
7 | C=C1CCC2C3C(O)C(O)C4CC(NCc5ccccc5F)CCC4(C)C3CCC12C.CC(=O)O (centres unmarked) [Compound 101] | 16.3 | – | –
8 | C=C1CCC2C3C(O)C(O)C4CC(NCc5cccc(C(F)(F)F)c5)CCC4(C)C3CCC12C.CC(=O)O (centres unmarked) [Compound 102] | 9.5 | 10 | –
9 | C=C1CCC2C3C(O)C(O)C4CC(NCc5ccccc5OC)CCC4(C)C3CCC12C.CC(=O)O (centres unmarked) [Compound 103] | 23.7 | 11.1 | –
10 | C=C1CCC2C3C(O)C(O)C4CC(NCc5ccc(OC(F)(F)F)cc5)CCC4(C)C3CCC12C.CC(=O)O (centres unmarked) [Compound 104] | 30.3 | 9.5 | –
11 | C=C1CCC2C3C(O)C(O)C4CC(NCc5cccc(Oc6ccccc6)c5)CCC4(C)C3CCC12C.CC(=O)O (centres unmarked) [Compound 105] | 10.2 | 22.5 | –
12 | C=C1CCC2C3C(O)C(O)C4CC(NCc5cccc([N+](=O)[O-])c5)CCC4(C)C3CCC12C (centres unmarked) [Compound 106] | 8.1 | 8.8 | –
13 | CC=C1CCC2C3C(O)C(O)C4CC(N5CCOCC5)CCC4(C)C3CCC12C.Cl (centres unmarked) [Compound 111] | 53.1 | 9.3 | –
14 | C/C=C1/CCC2C3C(CC[C@]12C)[C@@]1(C)CCC(NC)CC1[C@@H](O)[C@@H]3O (some centres unmarked) [Compound 113] | 45.0 | 9.8 | –
15 | CC=C1CCC2C3C(O)C(O)C4CC(NCCC)CCC4(C)C3CCC12C.Cl (centres unmarked) [Compound 114] | 37.9 | – | –
16 | CC=C1CCC2C3C(O)C(O)C4CC(NCCCCC)CCC4(C)C3CCC12C.Cl (centres unmarked) [Compound 115] | 40.0 | 11.1 | –
17 | CC=C1CCC2C3C(O)C(O)C4CC(NC5CCCC5)CCC4(C)C3CCC12C (centres unmarked) [Compound 116] | – | 9.6 | –

Row | SMILES | Calcium (% inhibition at 20 μM) (Jurkat clone E6.1 cells) [%] | IC50 [1, 3] [µM] | further results
18 | CC(=O)O.CC=C1CCC2C3C(O)C(O)C4CC(NC5CCCCC5)CCC4(C)C3CCC12C (centres unmarked) [Compound 117] | 42.2 | 6.6 | –
19 | CC(=O)O.CC=C1CCC2C3C(O)C(O)C4CC(N5CCCC5)CCC4(C)C3CCC12C (centres unmarked) [Compound 118] | 41.8 | 11 | –
20 | CC=C1CCC2C3C(O)C(O)C4CC(NCCNCCC)CCC4(C)C3CCC12C.Cl.Cl (centres unmarked) [Compound 119] | 54.5 | – | IC50 (Jurkat clone E6.1 cells; dose response activity examined): ≤ 10 µM
21 | CC=C1CCC2C3C(O)C(O)C4CC(NCCN(C)C)CCC4(C)C3CCC12C.Cl.Cl (centres unmarked) [Compound 120] | 44.0 | 9.1 | –
22 | CC(=O)O.CC=C1CCC2C3C(O)C(O)C4CC(N5CCNCC5)CCC4(C)C3CCC12C (centres unmarked) [Compound 121] | 42.4 | 14.4 | –
23 | CC=C1CCC2C3C(O)C(O)C4CC(NCCO)CCC4(C)C3CCC12C.Cl (centres unmarked) [Compound 122] | 31.4 | 12.3 | –
24 | CC=C1CCC2C3C(O)C(O)C4CC(NCCCCCO)CCC4(C)C3CCC12C.Cl (centres unmarked) [Compound 123] | 12.8 | 16.7 | –
25 | CC=C1CCC2C3C(O)C(O)C4CC(NCCNCCO)CCC4(C)C3CCC12C.Cl.Cl (centres unmarked) [Compound 124] | 21.0 | – | % inhibition of eosinophils ([2]; 1 mg/kg/day for 4 days): −55%; % inhibition of lymphocytes ([2]; 1 mg/kg/day for 4 days): −26%; % inhibition of neutrophils ([2]; 1 mg/kg/day for 4 days): −76%
26 | CC=C1CCC2C3C(O)C(O)C4CC(Nc5cccc(C)c5)CCC4(C)C3CCC12C.Cl (centres unmarked) [Compound 125] | 5.7 | 39.4 | –
27 | CC=C1CCC2C3C(O)C(O)C4CC(Nc5ccc(O)cc5)CCC4(C)C3CCC12C.Cl (centres unmarked) [Compound 126] | 45.0 | 9.7 | –
28 | CC=C1CCC2C3C(O)C(O)C4CC(Nc5ccc(S(N)(=O)=O)cc5)CCC4(C)C3CCC12C.Cl (centres unmarked) [Compound 127] | 29.4 | 10.1 | –
29 | C=C1CCC2C3C(CC[C@]12C)[C@@]1(C)CC[C@@H](NC(C)=O)CC1[C@@H](O)[C@@H]3O (some centres unmarked) [Compound 131] | – | – | % inhibition of eosinophils ([2]; 1 mg/kg/day for 4 days): 16%; % inhibition of lymphocytes ([2]; 1 mg/kg/day for 4 days): 21%; % inhibition of neutrophils ([2]; 1 mg/kg/day for 4 days): 57%
30 | C=C1CCC2C3C(CC[C@]12C)[C@@]1(C)CC[C@@H](NC(=O)c2ccccc2)CC1[C@@H](O)[C@@H]3O (some centres unmarked) [Compound 132] | 19.6 | 10 | –
31 | C=C1CCC2C3C(CC[C@]12C)[C@@]1(C)CC[C@@H](NS(=O)(=O)C(C)C)CC1[C@@H](O)[C@@H]3O (some centres unmarked) [Compound 133] | – | – | % inhibition of eosinophils ([2]; 1 mg/kg/day for 4 days): −43%; % inhibition of lymphocytes ([2]; 1 mg/kg/day for 4 days): 28%; % inhibition of neutrophils ([2]; 1 mg/kg/day for 4 days): 40%
32 | C=C1CCC2C3C(CC[C@]12C)[C@@]1(C)CC[C@@H](NS(=O)(=O)c2ccccc2)CC1[C@@H](O)[C@@H]3O (some centres unmarked) [Compound 134] | 25.1 | 16.7 | –
33 | Cc1cccc(CNC2CCC3(C)C(C2)C(O)C(O)C2C4=C(CCC23)C(C)(C)CC4)c1.Cl (centres unmarked) [Compound 140] | 21.5 | 10.2 | –
34 | COC1C(OC)C2CC(N)CCC2(C)C2CCC3=C(CCC3(C)C)C12.Cl (centres unmarked) [Compound 148] | 6.6 | 29.2 | –
